Data reported in patent publication US20120190580A1, “TREATMENT OF PATIENTS AFTER STENT IMPLANTATION OR BALLOON DILATATION AND DRUG ELUTING STENTS” (MAX-PLANCK-GESELLSCHAFT ZUR FORDERUNG DER WISSENSCHAFTEN …, priority 2009, published 2012).

Assays:
Type in all cases: in vivo, mouse
[1] = system: aortae of miR-143/145 KO mice; test: Affymetrix GeneChip mRNA expression analysis of aortae after chronic captopril or losartan
Text: A 129S7AB2.2 genomic BAC clone (bMQ-446B20; Sanger) was used to generate the targeting vector. Recombination in SW102 cell was employed to replace the miR-143 to miR-145 genomic region by a galK cassette (45) that was amplified by the primers flanking premiR-143 to pre-miR-145 ([…] GCggcgcgcctcagcactgtcctgctcctt; […] ACggcgcgcctgttgacaattaatcatcggca). The genomic sequence was inserted via gap repair into a pKO targeting vector containing a DTA expression cassette and 450 bp homology arms for BAC recombination resulting in a vector containing 6.5 kb of sequence 5′ of miR-143 and 5.5 kb 3′ of miR-145 from genomic sequence […] to […]. The AscI restriction sites flanking the galK cassette were used to replace the galK by a floxed IRESIacZ-NeoR cassette. The vector was electroporated into MPI II ES cells (46) and recombinant clones were identified. Recombinant ES cells were injected into blastocysts and transferred to pseudopregnant mice. Chimeric animals were backcrossed to C57BL/6 mice. Heterozygous animals were used to obtain WT and KO littermates. ES cells and mice were genotyped using an EcoRV restriction digest and a 5′ outside probe amplified from genomic DNA using oligonucleotides ([…]; […]). […] The experiments were performed in accordance with German legislation on protection of animals and were approved by the local governmental animal care committee (Regierungspraesidium Darmstadt).
Tissues were dissected from PBS perfused animals and total RNA was isolated using the Trizol method (Invitrogen). RNA quality was checked on the Agilent 2100 Bioanalyser using the RNA 6000 Nano Kit. For mRNA expression analysis the Affymetrix GeneChip Mouse Genome 430 2.0 Array was employed with the respective one-cycle target labelling protocol. Data were analysed by the RMA algorithm using the Affymetrix Expression Console. […] 507 probe sets were identified with p<0.05 and FC>1.5 or FC<0.666. For miRNA expression analysis 384 3′ C6 aminolinker DNA-oligonucleotides complementary to published miRNA (Sanger, miRBase) sequences were synthesised and spotted with eight replicates per array to Nexterion E slides. Probe labelling and hybridization followed the Agilent miRNA labelling protocol, but P-CTTTT-Alexa555 or P-CTTTTAlexa647 oligonucleotides (MWG-Biotech) were ligated to the miRNAs. Arrays were scanned and analysed with an Axon 4200B scanner and GenePix Pro 6.0. Normalisation and data analysis was performed using Acuity 4.0. For multiple tissue comparison, miRNA from tissues was labelled with the Alexa555 dye, miRNA from whole E15.5 embryos labelled with Alexa647 dye was used as a reference. Data were linear normalized to a log ratio of 1 for the ratio of medians of let-7a-g and let-7i signals. The log 2 ratio data were centered for the single miRNA expression signals (by subtracting the row mean from each value), log 2 ratio data are visualized. For Northern blot analysis 3 μg (aorta 1.5 μg) of total RNA were separated on a 15% Polyacrylamide-Urea gel (Invitrogen) and blotted on Hybond XL (Amersham). miR-145, miR-143 and U6 antisense oligonucleotides were labeled with γ-ATP and PNK (NEB) and purified using Micro Bio-Spin® 6 columns (Biorad). Hybridization was performed in Ultrahyb hybridization buffer (Ambion) at 30° C. over night. Blots were washed 2 times in 2×SSC/0.1% SDS at 25° C. (5 min) and at 42° C. (15 min). Signals were detected using a BAS-2500 imager (Fujifilm).

mesenteric arteries = test: Myograph: contractile responses to phenylephrine of mesenteric arteries from losartan-treated mice
Text: A 129S7AB2.2 genomic BAC clone (bMQ-446B20; Sanger) was used to generate the targeting vector. Recombination in SW102 cell was employed to replace the miR-143 to miR-145 genomic region by a galK cassette (45) that was amplified by the primers flanking premiR-143 to pre-miR-145 ([…] GCggcgcgcctcagcactgtcctgctcctt; […] ACggcgcgcctgttgacaattaatcatcggca). The genomic sequence was inserted via gap repair into a pKO targeting vector containing a DTA expression cassette and 450 bp homology arms for BAC recombination resulting in a vector containing 6.5 kb of sequence 5′ of miR-143 and 5.5 kb 3′ of miR-145 from genomic sequence […] to […]. The AscI restriction sites flanking the galK cassette were used to replace the galK by a floxed IRESIacZ-NeoR cassette. The vector was electroporated into MPI II ES cells (46) and recombinant clones were identified. Recombinant ES cells were injected into blastocysts and transferred to pseudopregnant mice. Chimeric animals were backcrossed to C57BL/6 mice. Heterozygous animals were used to obtain WT and KO littermates. ES cells and mice were genotyped using an EcoRV restriction digest and a 5′ outside probe amplified from genomic DNA using oligonucleotides ([…]; […]). For chronic ACE or AT1 inhibition drinking water of mice was supplemented with 600 μg/ml captopril (Sigma#C-8856) and 100 µg/ml losartan (Fluka#61188) for at least 3 weeks. The experiments were performed in accordance with German legislation on protection of animals and were approved by the local governmental animal care committee (Regierungspraesidium Darmstadt).
Isolated segments of femoral and mesenteric arteries were examined in an isometric microvessel myograph as described previously (52). Mounted vessels were stimulated with 80 mM K+, 30 nM angiotensin II or increasing concentrations of phenylephrine (100 nM to 10 μM). The pCa-force relationships (13, 14) were obtained in permeabilized mouse femoral artery segments. In brief, arteries were permeabilized for 30 minutes using 0.5% Triton X-100 in relaxation solution. The latter consisted of (in mM): EGTA 1, Pipes 30, Na2ATP 5.16, MgCl2 7.31, sodium creatine phosphate 10 and potassium gluconate 74.1. For contraction curves the buffer was supplemented with 160 U/ml calmodulin and 100 U/ml creatine phosphokinase. The concentration of free Ca2+ ions was calculated as described previously (53).

arteries of KO mice = test: Morphological analysis of arteries after chronic treatment; conditions: 20 days treatment
Text: A 129S7AB2.2 genomic BAC clone (bMQ-446B20; Sanger) was used to generate the targeting vector. Recombination in SW102 cell was employed to replace the miR-143 to miR-145 genomic region by a galK cassette (45) that was amplified by the primers flanking premiR-143 to pre-miR-145 ([…] GCggcgcgcctcagcactgtcctgctcctt; […] ACggcgcgcctgttgacaattaatcatcggca). The genomic sequence was inserted via gap repair into a pKO targeting vector containing a DTA expression cassette and 450 bp homology arms for BAC recombination resulting in a vector containing 6.5 kb of sequence 5′ of miR-143 and 5.5 kb 3′ of miR-145 from genomic sequence […] to […]. The AscI restriction sites flanking the galK cassette were used to replace the galK by a floxed IRESIacZ-NeoR cassette. […]
Arteries were perfused using a PBS solution via the heart apex at 100 mmHg pressure for 2 min, followed by perfusion with 4% paraformaldehyde in PBS. […] Ultra-thin sections were stained with uranyl acetate and lead citrate, viewed and photographically recorded using a Philips CM 10 electron microscope. The phenotype of VSMC was determined ultrastructurally following criteria as previously reported (47). […] The phenotype of VSMC in each mouse was quantified in at least 300 cells per 3 arterial segments (minimum 100 μm) using consecutive transversal sections. […]

[2] = aorta, chronic oral treatment 20 days

CCCCc1nc(Cl)c(CO)n1Cc1ccc(-c2ccccc2-c2nn[nH]n2)cc1 [losartan]
FC Acta1 (1427735_a_at), treated miR-143/145 KO vs. WT [1, 2]: 0.76
FC Arhgef17 (1433682_at), treated miR-143/145 KO vs. WT [1, 2]: 1.11
FC Cald1 (1424768_at), treated miR-143/145 KO vs. WT [1, 2]: 1.53
FC Camk2g (1423942_a_at), treated miR-143/145 KO vs. WT [1, 2]: 1.17
FC Cap2 (1423222_at), treated miR-143/145 KO vs. WT [1, 2]: 1.36
FC Clcn3 (1433486_at), treated miR-143/145 KO vs. WT [1, 2]: 1.27
FC Efemp1 (1427183_at), treated miR-143/145 KO vs. WT [1, 2]: 0.71
FC Itga3 (1455158_at), treated miR-143/145 KO vs. WT [1, 2]: 0.84
FC Krt8 (1420647_a_at), treated miR-143/145 KO vs. WT [1, 2]: 1.00
FC Mc2r (1422926_at), treated miR-143/145 KO vs. WT [1, 2]: 0.70
FC Mylk (1425506_at), treated miR-143/145 KO vs. WT [1, 2]: 1.06
FC Mylpf (1448371_at), treated miR-143/145 KO vs. WT [1, 2]: 1.05
FC Myoc (1450468_at), treated miR-143/145 KO vs. WT [1, 2]: 0.76
FC Neo1 (1440789_at), treated miR-143/145 KO vs. WT [1, 2]: 1.27
FC Npr3 (1435184_at), treated miR-143/145 KO vs. WT [1, 2]: 1.68
FC Pde3b (1433694_at), treated miR-143/145 KO vs. WT [1, 2]: 0.87
FC Ppp2r1b (1419871_at), treated miR-143/145 KO vs. WT [1, 2]: 0.65
FC Prkg1 (1449876_at), treated miR-143/145 KO vs. WT [1, 2]: 1.16
FC Rock1 (1460729_at), treated miR-143/145 KO vs. WT [1, 2]: 1.77
FC S100a8 (1419394_s_at), treated miR-143/145 KO vs. WT [1, 2]: 1.83
FC S100a9 (1448756_at), treated miR-143/145 KO vs. WT [1, 2]: 1.64
FC Serca1 (1419312_at), treated miR-143/145 KO vs. WT [1, 2]: 0.82
FC Tnnc2 (1417464_at), treated miR-143/145 KO vs. WT [1, 2]: 1.51
FC Unc5c (1449522_at), treated miR-143/145 KO vs. WT [1, 2]: 0.80
number of the 507 deregulated probe sets returned to normal (WT) levels ([1]; mutant mice, 3 weeks (20 days) oral application, p > 0.05 vs. WT, n = 3): 220
phenylephrine induced contraction relative to K+ force (mesenteric arteries; KO mice, losartan for 3 weeks): 96 % of the K+ force
enhancement of phenylephrine induced contraction (mesenteric arteries; KO mice, losartan for 3 weeks, 3 μM phenylephrine): 214%
enhancement of phenylephrine induced contraction (mesenteric arteries; KO mice, losartan for 3 weeks, 10 μM phenylephrine): 57%
phenylephrine-induced vasoconstriction (mesenteric arteries; WT mice, losartan): did not affect
contractility on phenylephrine stimulation (mesenteric arteries; arterial rings from KO animals, losartan-treated vs. KO untreated): significant enhancement
significant morphological changes in arteries (arteries of KO mice): not observed
